Laboratory results: paper PMC2787644 (Clinical cancer research : an official journal of the …, 2009)
Where two headings read alike, the source gives them in different places.

Experiments:
cisplatin-refractory GCT = details: single agent, cited from earlier work
[1] = Flavopiridol plasma pharmacokinetics; format: in vivo; details: human, intravenous, 80 mg/m2, Cmax, cohort 7a (80 mg/m^2)
[2] = 70 mg/m^2, combined with irinotecan; cited from earlier work
[3] = format: in vivo, human; details: component of flavopiridol + FOLFOX

In the case of O=C1[O][Pt]2([NH][C@@H]3CCCC[C@H]3[NH]2)[O]C1=O [oxaliplatin], the Overall response rate (cisplatin-refractory GCT; 60 mg/m^2 weekly on days 1, 8, 15 every 28 days) is listed as 6% and the Objective response rate (cisplatin-refractory GCT; 130 mg/m^2 every 2 weeks) is listed as 19%.

In the case of CN1CC[C@H](c2c(O)cc(O)c3c(=O)cc(-c4ccccc4Cl)oc23)[C@H](O)C1 [flavopiridol, Flavopiridol], the Cmax ([1]; the 3 patients who experienced a DLT) is given as 2.26 µM, the Cmax ([1]; the other patients in the cohort) is given as 1.45 µM and the Cmax [2] is given as 2.76 ± 0.54 µM.

For O=c1[nH]cc(F)c(=O)[nH]1 [5FU, fluorouracil], the “Maximum tolerated dose (MTD), continuous infusion over 48 hours” value ([3]; every 2 weeks (cohort 6a)) was 1800 mg/m^2 and the “Maximum tolerated dose (MTD), bolus” value ([3]; every 2 weeks (fixed dose)) was 400 mg/m^2.
